Assays:
PIK3CA (human) = PIK3CA (human) (UniProt P42336); assay: Assessment of PIK3CA Kinase Activity
PIK3CG (human) = PIK3CG (human) (UniProt P48736); assay: Assessment of PIK3CG Kinase Activity
Sequence of PIK3CG (human) (P48736 whole entry, looked up): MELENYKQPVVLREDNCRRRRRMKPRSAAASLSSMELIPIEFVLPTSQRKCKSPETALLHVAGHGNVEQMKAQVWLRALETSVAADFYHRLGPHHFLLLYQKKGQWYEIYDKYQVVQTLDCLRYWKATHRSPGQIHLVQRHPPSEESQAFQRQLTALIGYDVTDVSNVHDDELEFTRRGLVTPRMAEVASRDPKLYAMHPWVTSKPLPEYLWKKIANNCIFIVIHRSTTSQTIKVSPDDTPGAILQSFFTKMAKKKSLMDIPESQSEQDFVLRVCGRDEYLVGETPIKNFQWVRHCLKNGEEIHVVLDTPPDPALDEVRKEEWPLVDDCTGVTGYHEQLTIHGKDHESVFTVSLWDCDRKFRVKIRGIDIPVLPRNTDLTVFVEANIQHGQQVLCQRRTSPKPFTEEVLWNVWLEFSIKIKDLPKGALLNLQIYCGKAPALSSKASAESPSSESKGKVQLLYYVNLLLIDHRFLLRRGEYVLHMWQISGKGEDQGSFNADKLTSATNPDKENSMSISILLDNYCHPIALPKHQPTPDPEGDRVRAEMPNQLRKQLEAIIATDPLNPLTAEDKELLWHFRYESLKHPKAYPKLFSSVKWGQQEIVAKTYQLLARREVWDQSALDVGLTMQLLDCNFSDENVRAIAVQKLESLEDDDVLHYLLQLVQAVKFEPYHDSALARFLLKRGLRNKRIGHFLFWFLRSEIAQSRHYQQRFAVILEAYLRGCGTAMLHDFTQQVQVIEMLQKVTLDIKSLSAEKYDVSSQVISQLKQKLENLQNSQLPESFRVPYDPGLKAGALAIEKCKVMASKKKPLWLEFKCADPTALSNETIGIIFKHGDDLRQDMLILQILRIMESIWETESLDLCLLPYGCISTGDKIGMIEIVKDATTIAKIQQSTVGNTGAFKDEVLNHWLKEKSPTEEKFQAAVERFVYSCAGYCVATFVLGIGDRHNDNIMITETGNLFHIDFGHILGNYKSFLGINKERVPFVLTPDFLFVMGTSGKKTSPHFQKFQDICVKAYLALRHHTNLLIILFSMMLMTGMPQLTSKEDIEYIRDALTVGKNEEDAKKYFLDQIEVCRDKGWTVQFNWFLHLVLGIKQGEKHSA

Sequence of PIK3CA (human) (P42336 whole entry, looked up): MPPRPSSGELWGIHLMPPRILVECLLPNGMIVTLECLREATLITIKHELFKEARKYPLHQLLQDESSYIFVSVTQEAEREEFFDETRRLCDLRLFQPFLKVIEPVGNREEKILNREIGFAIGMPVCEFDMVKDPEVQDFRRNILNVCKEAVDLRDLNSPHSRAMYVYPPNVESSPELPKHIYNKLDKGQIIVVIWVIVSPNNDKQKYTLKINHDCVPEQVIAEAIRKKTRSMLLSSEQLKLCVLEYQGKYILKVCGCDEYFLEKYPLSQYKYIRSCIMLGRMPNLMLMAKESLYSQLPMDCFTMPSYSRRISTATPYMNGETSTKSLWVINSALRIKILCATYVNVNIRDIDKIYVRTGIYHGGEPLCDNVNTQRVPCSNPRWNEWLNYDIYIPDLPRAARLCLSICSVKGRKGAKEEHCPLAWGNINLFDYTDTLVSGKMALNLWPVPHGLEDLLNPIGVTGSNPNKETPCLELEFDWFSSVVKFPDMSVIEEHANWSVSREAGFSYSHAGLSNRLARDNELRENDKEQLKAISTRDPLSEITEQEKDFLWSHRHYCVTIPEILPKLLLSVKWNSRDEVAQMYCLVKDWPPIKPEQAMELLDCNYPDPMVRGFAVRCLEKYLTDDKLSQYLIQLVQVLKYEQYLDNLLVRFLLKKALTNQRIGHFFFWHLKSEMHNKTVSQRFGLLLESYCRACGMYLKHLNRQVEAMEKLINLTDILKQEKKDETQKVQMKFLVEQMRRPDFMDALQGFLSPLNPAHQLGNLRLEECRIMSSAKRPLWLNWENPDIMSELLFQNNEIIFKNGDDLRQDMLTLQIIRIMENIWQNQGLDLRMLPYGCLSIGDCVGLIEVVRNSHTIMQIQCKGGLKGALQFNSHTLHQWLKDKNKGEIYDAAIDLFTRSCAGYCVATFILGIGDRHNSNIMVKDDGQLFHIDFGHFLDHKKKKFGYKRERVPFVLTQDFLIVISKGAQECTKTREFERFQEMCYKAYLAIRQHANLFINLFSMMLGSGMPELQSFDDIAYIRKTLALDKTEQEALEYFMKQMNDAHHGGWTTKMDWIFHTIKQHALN

| Compound | IC50 (PIK3CA (human)) | IC50 (PIK3CG (human)) |
| --- | --- | --- |
| O=C(Nc1ccc(-c2nc3c(c(N4CC5CCC(C4)O5)n2)CNC3)cc1)Nc1cccnc1 | 0.059 µM | 1.86 µM |
| O=C(Nc1ccc(-c2nc3c(c(N4CCOCC4)n2)CCNC3)cc1)Nc1cccnc1 | 0.066 µM | 0.715 µM |
| CN1CCc2c(nc(-c3ccc(NC(=O)Nc4cccnc4)cc3)nc2N2CC3CCC(C2)O3)C1 | 0.674 µM | 9.5 µM |
| O=C(Nc1ccc(-c2nc3c(c(N4C5CCC4COC5)n2)CCNC3)cc1)Nc1cccnc1 | 1.79 µM | > 10 µM |
| CN1CCc2c(nc(-c3ccc(NC(=O)Nc4cccnc4)cc3)nc2N2C3CCC2COC3)C1 | 1.11 µM | 12 µM |
| CN(C)C1CCN(C(=O)c2ccc(NC(=O)Nc3ccc(-c4nc5c(c(N6CCOCC6)n4)CCNC5)cc3)cc2)CC1 | 0.031 µM | 0.224 µM |
| CS(=O)(=O)N1CCc2c(nc(-c3ccc(NC(=O)Nc4cccnc4)cc3)nc2N2CC3CCC(C2)O3)C1 | 0.107 µM | 1.24 µM |
| CS(=O)(=O)N1Cc2nc(-c3ccc(NC(=O)Nc4cccnc4)cc3)nc(N3C4CCC3COC4)c2C1 | 0.732 µM | > 10 µM |
| CNC(=O)Nc1ccc(-c2nc3c(c(N4C5CCC4COC5)n2)CCNC3)cc1 | 3.76 µM | > 10 µM |

Next, values leading:

| IC50 (PIK3CA (human)) | IC50 (PIK3CG (human)) | Compound |
| --- | --- | --- |
| 0.557 µM | > 10 µM | CNC(=O)Nc1ccc(-c2nc3c(c(N4CC5CCC(C4)O5)n2)CCN(S(C)(=O)=O)C3)cc1 |
| 0.005 µM | 0.068 µM | O=C(Nc1ccc(-c2nc3c(c(N4CCOCC4)n2)CNC3)cc1)Nc1cccnc1 |
| 0.005 µM | 0.067 µM | CNC(=O)Nc1ccc(-c2nc3c(c(N4CCOCC4)n2)CNC3)cc1 |
| 0.582 µM | > 10 µM | CNC(=O)Nc1ccc(-c2nc3c(c(N4C5CCC4COC5)n2)CCN(S(C)(=O)=O)C3)cc1 |
| 0.001 µM | 0.023 µM | CNC(=O)Nc1ccc(-c2nc3c(c(N4CCOCC4)n2)CN(S(C)(=O)=O)C3)cc1 |

— the Kinase Knowledgebase extract (Sharma et al. 2016)
